This note sets out measurements from ChEMBL document CHEMBL1201862, “PubChem BioAssay data set” (2004).

Among the test systems are Malme-3M; U-251; MDA-N; UACC-62; RPMI-8226; DU-145; OVCAR-8; CAKI-1; HOP-62; SF-295; SF-268; KM12; HOP-92; COLO 205; HCT-116; K562; PC-3; HT-29; A498.
Common to all, as to experiment: inhibition of tumour cell growth, NCI panel, 48 h

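Tested at 5 concentrations; 48 h exposure; 96-well plates; endpoints linearly interpolated, else capped at highest concentration. Abbreviation: GI50, concentration required for 50% inhibition of growth.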 The source made the active and inactive calls. No stated cut-off is given here; in the data, active = GI50 up to about 1.1 µM and inactive = higher.

Turning to `O=C1c2ccccc2-c2c1c1ccccc1c(=O)n2-c1ccccc1`, the GI50 with Malme-3M was > 62.5 µM (inactive); in the test on U-251 it was 9.18 µM (inactive); with MDA-N it was > 79.1 µM (inactive); with UACC-62 it was 11.1 µM (inactive); in the test on RPMI-8226, > 100 µM (inactive); with DU-145, 59.7 µM (inactive). Also, the GI50 was 5.79 µM (inactive) in the test with OVCAR-8; 11.8 µM (inactive) in the test on CAKI-1; 4.26 µM (inactive) with HOP-62; 10.1 µM (inactive) with SF-295; 9.1 µM (inactive) in the test with SF-268; 14.6 µM (inactive) in the test on KM12. Further, the GI50 was 26.9 µM (inactive) in the test with HOP-92; > 46.5 µM (inactive) in the test on COLO 205; 4.17 µM (inactive) with HCT-116; > 60.1 µM (inactive) in the test with K562; > 81.5 µM (inactive) in the test on PC-3; > 31.5 µM (inactive) in the test with HT-29. Also, the GI50 in the test with A498 is 16.6 µM (inactive).

`N=c1ccn2c(n1)OC1C(OP(=O)(O)O)C(CO)OC12` (stereo not given): the GI50 was > 100 µM (inactive) in the test with Malme-3M; > 57.8 µM (inactive) in the test on U-251; > 83.9 µM (inactive) in the test on MDA-N; 10.4 µM (inactive) with UACC-62; > 100 µM (inactive) with RPMI-8226; 7.31 µM (inactive) with DU-145. Moreover, the GI50 was 5.45 µM (inactive) in the test with OVCAR-8; > 24.5 µM (inactive) in the test on CAKI-1; 1.21 µM (inactive) in the test with HOP-62; 38.1 µM (inactive) with SF-295; 99.5 µM (inactive) in the test on SF-268; > 100 µM (inactive) with KM12. The GI50 in the test on HOP-92 is > 100 µM (inactive); in the test with COLO 205, > 70.6 µM (inactive); in the test with HCT-116, 2.06 µM (inactive); with K562, > 80 µM (inactive); in the test with PC-3, > 100 µM (inactive); in the test on HT-29 it was 10.5 µM (inactive). The GI50 in the test with A498 was 10.8 µM (inactive).

As for `COC(=O)c1ccccc1CC1Cc2cc3c(cc2C1=O)CCC3` (stereo not given), the GI50 in the test on Malme-3M was 7.14 µM (inactive); in the test on U-251, 10.4 µM (inactive); in the test with MDA-N, 1.93 µM (inactive); in the test on UACC-62, 9.77 µM (inactive); with RPMI-8226, 10.5 µM (inactive); in the test with DU-145, 27.7 µM (inactive). Also, the GI50 with OVCAR-8 is 20.1 µM (inactive); with CAKI-1 it was 11.1 µM (inactive); in the test on HOP-62 it was 17.1 µM (inactive); with SF-295 it was 14.6 µM (inactive); with SF-268, 29.6 µM (inactive); with KM12 it was 8.67 µM (inactive). The GI50 in the test on HOP-92 is 13.7 µM (inactive); in the test on COLO 205, 8.59 µM (inactive); with HCT-116, 5.32 µM (inactive); in the test on K562 it was 3.69 µM (inactive); with PC-3, 11.1 µM (inactive); in the test with HT-29 it was 8.71 µM (inactive). The GI50 with A498 was 11.7 µM (inactive).

Take `NC(=O)Nc1ccc(S(=O)(=O)Nc2ccc(S(N)(=O)=O)cc2)cc1`: the GI50 in the test with Malme-3M, with U-251, in the test with MDA-N, with UACC-62, in the test with RPMI-8226 and in the test with DU-145 was > 100 µM (inactive) throughout. Further, the GI50 in the test with OVCAR-8 was > 100 µM (inactive); with CAKI-1 it was > 100 µM (inactive); in the test with HOP-62 it was > 100 µM (inactive); with SF-295, > 100 µM (inactive); in the test on SF-268, 0.649 µM (active); with KM12, > 100 µM (inactive). For the same molecule, the GI50 with HOP-92 was 37.2 µM (inactive); in the test on COLO 205, > 100 µM (inactive); in the test with HCT-116 it was > 100 µM (inactive); in the test with K562 it was > 100 µM (inactive); with PC-3 it was > 100 µM (inactive); in the test with HT-29 it was > 100 µM (inactive). In addition, in the test with A498, the GI50 was > 100 µM (inactive).

Turning to `c1ccc(C2=Nn3c(CCCCCCCCc4nnc5n4N=C(c4ccccc4)CS5)nnc3SC2)cc1`, the GI50 in the test on Malme-3M is 28.2 µM (inactive); in the test with U-251 it was 15.6 µM (inactive); in the test on MDA-N, > 100 µM (inactive); with UACC-62 it was 46.8 µM (inactive); in the test with RPMI-8226 it was > 100 µM (inactive); with DU-145, > 100 µM (inactive). In addition, the GI50 in the test on OVCAR-8 was > 46.5 µM (inactive); in the test with CAKI-1, 41.2 µM (inactive); in the test on HOP-62 it was 17.4 µM (inactive); in the test with SF-295 it was 20.1 µM (inactive); in the test on SF-268, 23.1 µM (inactive); in the test with KM12 it was > 100 µM (inactive). Moreover, the GI50 in the test with HOP-92 is 34.2 µM (inactive); with COLO 205, > 100 µM (inactive); in the test on HCT-116, > 66.1 µM (inactive); in the test with K562, 33.3 µM (inactive); in the test with PC-3, > 100 µM (inactive); in the test on HT-29, 19.6 µM (inactive). In the test with A498, the GI50 is 39.1 µM (inactive).

With `CN(C)CCCOC(=O)C(O)(Cc1ccccc1)C1CC1` (stereo not given), the GI50 in the test on Malme-3M, with U-251, in the test with MDA-N, in the test on UACC-62, in the test on RPMI-8226 and with DU-145 was > 100 µM (inactive) throughout. Also, the GI50 in the test with OVCAR-8, in the test with CAKI-1, in the test on HOP-62, in the test with SF-295, in the test on SF-268 and with KM12 was > 100 µM (inactive) each time. Further, the GI50 in the test with HOP-92, in the test with COLO 205, in the test with HCT-116, in the test on K562, with PC-3 and in the test on HT-29 was > 100 µM (inactive) throughout. Further, the GI50 in the test on A498 is > 100 µM (inactive).

As to `O=C(/C=C\c1ccc([N+](=O)[O-])cc1)c1ccccc(=O)c1O`, the GI50 is 0.873 µM (active) in the test with Malme-3M; 1.01 µM (active) in the test on U-251; 2.37 µM (inactive) with MDA-N; 1.14 µM (inactive) in the test with UACC-62; 0.682 µM (active) with RPMI-8226; 2.11 µM (inactive) in the test with DU-145. Besides, the GI50 with OVCAR-8 is 0.9 µM (active); in the test on CAKI-1, 1.32 µM (inactive); in the test with HOP-62, 1.88 µM (inactive); with SF-295, 1.42 µM (inactive); in the test with SF-268 it was 0.977 µM (active); with KM12, 1.04 µM (active). Moreover, the GI50 in the test on HOP-92 is 0.256 µM (active); with COLO 205 it was 0.397 µM (active); in the test on HCT-116, 0.659 µM (active); in the test with K562, 0.92 µM (active); with PC-3 it was 1.95 µM (inactive); with HT-29 it was 1.04 µM (active). Also, in the test with A498, the GI50 was 2.84 µM (inactive).

`C[C@@H]1OC(=O)C[C@H]2CC(=O)N(CCC3CN(C(=O)c4ccccc4)c4ccccc43)C[C@@H]21` (stereo not given in full): the GI50 with Malme-3M, with U-251, in the test on MDA-N, in the test with UACC-62, in the test on RPMI-8226 and in the test on DU-145 was > 100 µM (inactive) throughout. For the same molecule, the GI50 in the test with OVCAR-8, in the test on CAKI-1, in the test with HOP-62, in the test on SF-295, in the test with SF-268 and in the test with KM12 was > 100 µM (inactive) throughout. The GI50 in the test with HOP-92, with COLO 205, with HCT-116, in the test with K562, in the test with PC-3 and in the test on HT-29 was > 100 µM (inactive) each time. Besides, in the test on A498, the GI50 was > 100 µM (inactive).

As to `CC1(C)[C@@H]2C[C@H]1c1cnc(-c3ccccn3)cc1C2[C@@H]1c2cc(-c3ccccn3)ncc2[C@@H]2C[C@H]1C2(C)C` (stereo not given in full), the GI50 in the test with Malme-3M is 58.9 µM (inactive); in the test with U-251 it was 36.1 µM (inactive); in the test with MDA-N it was > 100 µM (inactive); with UACC-62, 45 µM (inactive); in the test on RPMI-8226, 31.7 µM (inactive); with DU-145, > 100 µM (inactive). For the same molecule, the GI50 with OVCAR-8 is 46.8 µM (inactive); with CAKI-1, 70.5 µM (inactive); in the test on HOP-62, 39.1 µM (inactive); in the test on SF-295, 34.5 µM (inactive); in the test with SF-268, 29.3 µM (inactive); with KM12 it was 33.3 µM (inactive). For the same molecule, the GI50 in the test with HOP-92 was > 100 µM (inactive); in the test with COLO 205 it was 49.1 µM (inactive); in the test on HCT-116, 49 µM (inactive); in the test with K562 it was 22.6 µM (inactive); with PC-3, 73.6 µM (inactive); with HT-29, 45.3 µM (inactive). In addition, the GI50 with A498 was 39.9 µM (inactive).

As for `CC(=O)O[C@@H]1C(C2CCCCC2)C=[N+]([O-])O[C@@H]1OC1CCCC1(c1ccccc1)c1ccccc1` (stereo not given in full), the GI50 in the test on Malme-3M is 2.99 µM (inactive); in the test with U-251 it was 12.5 µM (inactive); with MDA-N, 4.28 µM (inactive); with UACC-62, 5.81 µM (inactive); with RPMI-8226 it was 2.58 µM (inactive); in the test on DU-145 it was 10.9 µM (inactive). The GI50 in the test on OVCAR-8 is 2.04 µM (inactive); in the test with CAKI-1, 5.33 µM (inactive); with HOP-62 it was 14.9 µM (inactive); in the test on SF-295 it was 14.4 µM (inactive); in the test on SF-268 it was 7.4 µM (inactive); in the test on KM12, 8.04 µM (inactive). The GI50 in the test with HOP-92 is 10.1 µM (inactive); in the test with COLO 205, 5.73 µM (inactive); with HCT-116 it was 4.06 µM (inactive); in the test on K562, 3.61 µM (inactive); in the test on PC-3 it was 9.59 µM (inactive); with HT-29 it was 2.09 µM (inactive). For the same molecule, the GI50 in the test with A498 was 7.41 µM (inactive).
